From patent US6780853B1, “Neuroactive steroids of the androstane and pregnane series” (priority 1995, dated 2004) come the findings set out here.

SMILES strings stand for the structures. Counter-ions that a name gives are not always drawn.

This assay addresses GABA receptor complex (GRC). Put plainly: [35S]TBPS binding in rat cerebral cortex P2 homogenate. Particulars: for IC50: concentration to inhibit 50% of control [35S]TBPS binding, 2 nM [35S]TBPS; for IMAX (maximum inhibition): maximum inhibition of [35S]TBPS binding. The text has this:
To those skilled in the art, it is known that the modulation of [^35S]t-butylbicyclophosphorothionate ([^35S]TBPS) binding is a measure of the potency and efficacy of drugs acting at the GRC, which drugs may be of potential therapeutic value in the treatment of stress, anxiety, and seizure disorders (Squires, R. F., et al., Mol, Pharmacol., 23:326 (1983); Lawrence, L. J., et al., Biochem. Biophys. Res. Comm., 123:1130-1137 (1984); Wood, et al., Pharmacol, Exp. Ther., 231:572-576 (1984)). Several experiments were performed previously to determine the nature of the modulation of [^35S]TBPS as affected by neuroactive steroids. […] Furthermore, these compounds have high potency and efficacy at the GRC, with stringent structural requirements for such activity.
The procedures for performing this assay are fully discussed in: (1) Gee, K. W. et al., European Journal of Pharmacology, 136:419-423 (1987)); and (2) Gee, et al., Molecular Pharmacology 30:218 (1986). These procedures were performed as follows:
Brains from male Sprague-Dawley rats were removed immediately following sacrifice and the cerebral cortices dissected over ice. A P2 homogenate was prepared as previously described (Gee, et al., Molecular Pharmacology 30:218 (1986)). Briefly, the cortices were gently homogenized in 032 M sucrose followed by centrifugation at 1000×g for 10 minutes. The supernatant was collected and centrifuged at 9000×g for 20 minutes. The resultant P2 pellet was suspended as a 10% (original wet weight/volume) suspension in 50 mM Na/K phosphate buffer (pH 7.4) 200 mM NaCl to form the homogenate.
One hundred microliter […] aliquots of the P2 homogenate (0.5 milligrams (mg) protein) were incubated with 2 nanomolar (nM) [^35S]TBPS (70-110 curies/millimole; New England Nuclear, Boston, Mass.) in the presence or absence of the naturally occurring steroids or their synthetic derivatives to be tested. The tested compounds were dissolved in dimethylsulfoxide (Baker Chem. Co., Phillipsburg, N.J.) and added to the incubation mixture in 5 μL aliquots. The incubation mixture was brought to a final volume of 1 mL with buffer. Non-specific binding was defined as binding in the presence of […]. The effect and specificity of GABA (Sigma Chem. Co., St. Louis, Mo.) was evaluated by performing all assays in the presence of GABA plus (+)bicuculline (Sigma Chem. Co.). Incubations maintained at 25° C. for 90 minutes (steady state conditions) were terminated by rapid filtration through glass fiber filters (No. 32, Schleicher and Schuell, Keene, N.H.). Filter-bound radioactivity was quantitated by liquid scintillation spectrophotometry. Kinetic data and compound/[^35S]TBPS dose-response curves were analyzed by nonlinear regression using a computerized iterative procedure to obtain rate constants and IC50 (concentration of compound at which half-maximal inhibition of basal [^35S]TBPS binding occurs) values.
Various compounds were screened to determine their potential as modulators of [^35S]TBPS binding in vitro. These assays were performed in accordance with the above discussed procedures. Based on these assays, we have established the structure-activity requirements for their specific interaction at the GRC and their rank order potency and efficacy. Experimental data obtained in this assay for a number of 3α-hydroxypregnan-20-one derivatives is discussed in Gee, K. W. et al., European Journal of Pharmacology, 136:419-423 (1987) and in U.S. Pat. No. 5,232,917. Table 1 provides IC50 and maximum inhibition (IMAX) measurements for numerous compounds, including examples of compounds disclosed and claimed herein. IC50 is defined as concentration of compounds to inhibit 50% of control [^35S]TBPS binding. It is an indication of a compound's in vitro potency. Maximum inhibition is an indication of a compound's in vitro efficacy.

Consider `C#C[C@@]1(O)CC[C@@]2(C)[C@@H](CC[C@@H]3[C@@H]2CC[C@]2(C)[C@@H](C(=O)CSc4ccncc4)CC[C@@H]32)C1` [3β-ethynyl-3α-hydroxy-21-(pyrid-4-ylthio)-5α-pregnan-20-one], for which the IC50 (usually the concentration at which inhibition is half-maximal) came out at 0.043 µM and the “IMAX (maximum inhibition)” value came out at 103%.

Turning to `C[C@]12C[C@H](O)[C@H]3[C@@H](CCC4=CC(=O)CC[C@@]43C)[C@@H]1CC[C@@H]2C(=O)CO` [4-Pregnan-11β,21-diol-3,20-dione, reference compound], the IC50 is greater than 1000 µM and the “IMAX (maximum inhibition)” value is listed as 30%.

Turning to `CC(C)O[C@H]1C[C@@]2(C)[C@@H](CC[C@H]3[C@@H]4CCC[C@@]4(C)CC[C@@H]32)C[C@@H]1O` [3α-Hydroxy-2β-isopropoxy-5α-androstane, 2β-Isopropoxy-3α-hydroxy-5α-androstane], the IC50 was 0.456 µM and the “IMAX (maximum inhibition)” value is 98%.

`COC1CCC2C3CCC4CC(O)(C(F)(F)F)CCC4(C)C3CCC12C` (stereo not drawn) [3α-Hydroxy-17β-methoxy-3β-trifluoromethyl-5α-androstane]: the half-inhibitory concentration (IC50) was 0.341 µM and the “IMAX (maximum inhibition)” value is 100%.

As for `C#CC1(O)CCC2(C)C(CCC3C2CCC2(C)C(C(=O)CSCCCOS(=O)(=O)O)CCC32)C1` (stereo not drawn) [3β-Ethynyl-3α-hydroxy-21-thiopropanesulfate-5β-pregnan-20-one sodium salt], the concentration for half-maximal inhibition (IC50) came to 0.113 µM and the “IMAX (maximum inhibition)” value stood at 104%.

For the compound `CC(=O)[C@H]1CC[C@H]2[C@@H]3CCC4=CC(=O)CC[C@]4(C)[C@H]3CC[C@]12C` [Progesterone, reference compound], the IC50 was found to be 5.2 µM and the “IMAX (maximum inhibition)” value is listed as 100%.

In the case of `C#C[C@@]1(O)CC[C@@]2(C)[C@H](CC[C@@H]3[C@@H]2CC[C@]2(C)[C@@H](C(=O)CS(=O)(=O)CCCO)CC[C@@H]32)C1` [3β-Ethynyl-3α-hydroxy-21-hydroxypropylsulfonyl-5β-pregnan-20-one], the IC50 was 0.194 µM and the “IMAX (maximum inhibition)” value worked out at 107%.

In the case of `CCCO[C@H]1C[C@@]2(C)[C@@H](CC[C@@H]3[C@@H]2CC[C@]2(C)[C@@H](C(=O)CS(=O)(=O)CCCS(=O)(=O)[O-])CC[C@@H]32)C[C@@H]1O.[Na+]` [3α-Hydroxy-2β-propoxy-21-sulfonylpropanesulfonate-5α-pregnan-20-one sodium salt], the IC50 turned out to be 1.02 µM and the “IMAX (maximum inhibition)” value is on record as 101%.

On to `CC(=O)c1ccc(C#C[C@@]2(O)CC[C@@]3(C)[C@H](CC[C@@H]4[C@@H]3CC[C@]3(C)[C@@H](C(=O)CSc5ccncc5)CC[C@@H]43)C2)cc1` [3β-(4′-acetylphenyl)ethynyl-3α-hydroxy-21-(pyrid-4ylthio)-5β-pregnan-20-one], for which the concentration for half-maximal inhibition (IC50) was determined as 0.029 µM and the “IMAX (maximum inhibition)” value is listed as 94%.

In the case of `C[C@@]12CCC[C@H]1[C@@H]1CC[C@H]3C[C@H](O)CC[C@]3(C)[C@H]1CC2` [3α-Hydroxy-5α-androstane, reference compound], the IC50 amounted to 0.494 µM and the “IMAX (maximum inhibition)” value is given as 99%.

Turning to `CO[C@H]1CC[C@H]2[C@@H]3CC[C@H]4C[C@](C)(O)CC[C@]4(C)[C@H]3CC[C@]12C` [3α-Hydroxy-17β-methoxy-3βmethyl-5α-androstane], the IC50 was found to be 0.097 µM and the “IMAX (maximum inhibition)” value is recorded as 97%.

Regarding `C[C@]12CC[C@@H](O)C[C@H]1CC[C@@H]1[C@@H]2CC[C@]2(C)[C@@H](C(=O)CCc3ccncc3)CC[C@@H]12` [3α-Hydroxy-21-(4-pyridylmethyl)-5β-pregnan-20-one], the IC50 came out at 0.187 µM and the “IMAX (maximum inhibition)” value was 103%.

For the compound `COCC1(O)CCC2(C)C(CCC3C2CCC2(C)C(C(=O)CS(=O)(=O)c4ccc(F)cc4)CCC32)C1` (stereo not drawn) [21-(4′-fluorophenyl)sulfonyl-3α-hydroxy-3β-methoxymethyl-5α-pregnan-20-one], the IC50 was determined as 0.049 µM and the “IMAX (maximum inhibition)” value is listed as 99%.

For the compound `C[C@]12CC[C@@H](O)C[C@H]1CC[C@@H]1[C@@H]2CC[C@]2(C)[C@@H](C(=O)COc3ccncc3)CC[C@@H]12` [3α-Hydroxy-21-(pyrid-4-yloxy)-5β-pregnan-20-one], the IC50 is 0.045 µM and the “IMAX (maximum inhibition)” value came out at 76%.

As to `CC(=O)c1ccc(C#CC2(O)CCC3C(CCC4C3CCC3(C)CCCC43)C2)cc1` (stereo not drawn) [3α-Hydroxy-3β-(4′-acetylphenyl)ethynyl-5β-19-norandrostane], the concentration for half-maximal inhibition (IC50) turned out to be 0.492 µM and the “IMAX (maximum inhibition)” value is on record as 99%.

Turning to `C#CC1(O)CCC2(C)C(CCC3C2CCC2(C)C(C(=O)CSCCOS(=O)(=O)O)CCC32)C1` (stereo not drawn) [3β-ethynyl-3α-hydroxy-21-thioethanesulfate-5β-pregnan-20-one trimethyl ammonium salt], the IC50 was 0.322 µM and the “IMAX (maximum inhibition)” value was determined as 101%.

Take `CCCO[C@H]1C[C@@]2(C)[C@@H](CC[C@@H]3[C@@H]2CC[C@]2(C)[C@@H](C(=O)CSc4ccncc4)CC[C@@H]32)C[C@@H]1O` [3α-hydroxy-2β-propoxy-21-(pyrid-4-ylthio)-5α-pregnan-20-one]: the concentration for half-maximal inhibition (IC50) was 0.014 µM and the “IMAX (maximum inhibition)” value is given as 98%.

As to `CCCOC1CC2(C)C(CCC3C2CCC2(C)C(C(=O)COc4ccc([N+](C)(C)C)cc4)CCC32)CC1O` (stereo not drawn) [3α-hydroxy-2β-propoxy-21-(4′-N,N,N-trimethylammoniumphenoxy)-5α-pregnan-20-one iodide salt], the 50% inhibitory concentration (IC50) is 0.129 µM and the “IMAX (maximum inhibition)” value was 92%.

`C[C@@]12CCC[C@H]1[C@@H]1CC[C@@H]3C[C@H](O)CC[C@]3(C)[C@H]1CC2` [3α-Hydroxy-5β-androstane, reference compound]: the IC50 worked out at 0.815 µM and the “IMAX (maximum inhibition)” value was determined as 83%.

`CC(=O)[C@H]1CC[C@H]2[C@@H]3CC[C@H]4C[C@@H](O)CC[C@]4(C)[C@H]3CC[C@]12C` [3β-Hydroxy-5α-pregnan-20-one, reference compound]: the IC50 is greater than 1000 µM and the “IMAX (maximum inhibition)” value turned out to be 33%.

Consider `C[n+]1ccc(SCC(=O)C2CCC3C4CCC5CC(O)CCC5(C)C4CCC23C)cc1` (stereo not drawn) [3α-Hydroxy-21-(4′-pyridyl)thio-5β-pregnan-20-one N-methyl io] [3α-hydroxy-21-(pyrid-4-ylthio)-5β-pregnan-20-one N-methyl iodide], for which the IC50 came to 0.263 µM and the “IMAX (maximum inhibition)” value is given as 53%.

In the case of `C#C[C@@]1(O)CC[C@@]2(C)[C@H](CC[C@@H]3[C@@H]2CC[C@]2(C)[C@@H](C(=O)CSCCO)CC[C@@H]32)C1` [3β-Ethynyl-3α-hydroxy-21-hydroxyethylthio-5β-pregnan-20-one], the IC50 came out at 0.18 µM and the “IMAX (maximum inhibition)” value amounted to 103%.

With `C#CCO[C@H]1CC[C@H]2[C@@H]3CC[C@H]4C[C@](C)(O)CC[C@]4(C)[C@H]3CC[C@]12C` [3α-Hydroxy-3β-methyl-17β-(2-propynyloxy)-5α-androstane], the IC50 amounted to 0.163 µM and the “IMAX (maximum inhibition)” value amounted to 94%.

Regarding `C#CC1(O)CCC2(C)C(CCC3C2CCC2(C)C(C(=O)CSCCCS(=O)(=O)O)CCC32)C1` (stereo not drawn) [3β-ethynyl-3α-hydroxy-21-thiopropanesulfonate-5β-pregnan-20-one sodium salt], the IC50 is 0.343 µM and the “IMAX (maximum inhibition)” value came out at 97%.

For the compound `C[n+]1ccc(SCC(=O)C2CCC3C4CCC5CC(O)CCC5(C)C4CCC23C)cc1` (stereo not drawn) [3α-Hydroxy-21-(pyrid-4-ylthio)-5α-pregnan-20 -one N-methyl i] [3α-Hydroxy-21-(pyrid-4-ylthio)-5α-pregnan-20-one N-methyl iodide], the IC50 is 0.188 µM and the “IMAX (maximum inhibition)” value is given as 100%.
